The test system of series [1] is Plasmodium berghei. Briefly: P. berghei blood-stage mouse model, single oral dose. Type of series: in vivo. As to conditions: for average survival times: mice infected with P. berghei, single oral dose at 100 mg/kg.
A further series relates to P. yoelii EEF. Briefly: P. yoelii liver-stage. It counts as cell-based, Plasmodium yoelii. As to conditions: for Median parasite area: ±SD, DMSO control 160 to 180 μm^2, smallest size detected 9 μm^2; for activity against EEFs (in words): P. yoelii liver assay; for IC50: Plasmodium yoelii, 48 h, read-out: P. yoelii EEF IC50; for efficacy when compound added 15 and 27 hours post-invasion: end-point 51 hpi, Fig. 2C.

Another series has as its system HepG2-A16-CD81EGFP cells. Nature of the series: HepG2-A16-CD81EGFP inhibition. It counts as cell-based. As to conditions: Homo sapiens, HepG2, read-out: HepG2 inhibition IC50.
Series [2] concerns P. falciparum W2 parasites. Nature of the series: Blood-stage SYBR green assay, P. falciparum W2. Type of series: cell-based. Particulars: Plasmodium falciparum, W2, read-out: Blood IC50.
The subject of another series is P. berghei sporozoites. Nature of the series: Rodent malaria model of causal prophylactic treatment. Type of series: in vivo, Plasmodium berghei. Particulars: for blood stage parasitemia in later blood smear examinations / in vivo bioluminescence signal of developing parasite: GNF179 15 mg/kg, atovaquone 2.5 mg/kg, treated at 6 hpi, Fig. 2D.
Series [3] deals with P. falciparum blood stages. Nature of the series: P. falciparum blood stage cultures in vitro. Type of series: cell-based, Plasmodium falciparum. Particulars: text b23, strain not given.
In series [4] the test system is Plasmodium berghei. As to conditions: 100 mg/kg oral dose; cited from earlier work.
For series [5] the following is noted: mouse.
Series [6] relates to strains having mutations making them resistant to atovaquone and pyrimethamine. Nature of the series: Cross-resistance with strains resistant to liver-stage drugs. Type of series: cell-based. As to conditions: Table S6.
Series [7] has as its system parasite protein biosynthesis. Nature of the series: Parasite protein biosynthesis inhibition. Type of series: cell-based. Particulars: Fig. S4.
The conditions of series [8]: mouse, in vivo, po.
[9] abbreviates: 15 p.o. mg/kg, 1–3 hours prior to sporozoite injection.
The mark [10] stands for this setting: 30 p.o. mg/kg, 1–3 hours prior to sporozoite injection.
Setting [11] is: 5 p.o. mg/kg, 1–3 hours prior to sporozoite injection.
[12] abbreviates: 15 p.o. mg/kg, six hours after infection.

Entries after “also recorded” stand apart in the source; their conditions may differ. Read-outs that look alike come from different tables or passages of the source. Some results are limits rather than exact numbers.

In the series with Plasmodium berghei [1], `C[C@H]1[C@H](OC(=O)CCC(=O)O)O[C@@H]2O[C@@]3(C)CC[C@H]4[C@H](C)CC[C@@H]1[C@@]24OO3` [artesunate] displayed an average survival times of 7 days.
As to `CO[C@@H]1C(=O)CC[C@]2(CO2)[C@@]1(O)[C@@]1(C)O[C@@H]1CC=C(C)C` [Ovalicin], the Median parasite area stood at 35.1±3.1 μm^2 in the series with P. yoelii EEF (1 μM) and 19.1±0.9 μm^2 in the series with P. yoelii EEF (10 μM). Further, the “effect on the infection ratio” value with P. yoelii EEF (Fig. 1E) was “no drug effect is seen; also recorded: no measurable effect”. For the same molecule, the “activity against EEFs (in words)” value in the series on P. yoelii EEF was “confirmed as active”. In addition, the values for the IC50 (in the series on P. yoelii EEF; with HepG2-A16-CD81EGFP cells; in series [2]) were 0.7 ± 0.3 nM, over 10000 nM and over 10000 nM, respectively.
As for `COc1cc(NC(C)CCCN)c2ncccc2c1` (stereo not shown) [Primaquine], the results for the Median parasite area with P. yoelii EEF (1 μM) and in the series on P. yoelii EEF (10 μM) were 56.8±15.6 μm^2 and under 9 μm^2, respectively. In the series with P. yoelii EEF, the “activity against EEFs (in words)” value is listed as “confirmed as active”. The IC50 in the series with P. yoelii EEF stood at 1160 nM; in the series with HepG2-A16-CD81EGFP cells, 6100 ± 1900 nM; in series [2] it was 317 ± 60 nM.
As for `O=C1C(O)=C([C@H]2CC[C@H](c3ccc(Cl)cc3)CC2)C(=O)c2ccccc21` [Atovaquone], the “efficacy when compound added 15 and 27 hours post-invasion” value (“efficacy” below) in the series on P. yoelii EEF (1 μM) is recorded as “remained active later in EEF development”. In addition, the Median parasite area in the series with P. yoelii EEF (1 μM) was 18.2±1.0 μm^2; in the series on P. yoelii EEF (10 μM), 18.6±1.0 μm^2. The “activity against EEFs (in words)” value in the series on P. yoelii EEF is “confirmed as active”. Also, the 50% inhibitory concentration (IC50) came out at 9.4 ± 15 nM in the series with P. yoelii EEF, 9500 ± 2500 nM in the series with HepG2-A16-CD81EGFP cells and 2.2 ± 0.4 nM in [2]. The “Average Survival (%)” value is 100% in the series with P. berghei sporozoites (2.5 p.o. mg/kg, 1–3 hours prior to sporozoite injection) and 100% in the series on P. berghei sporozoites (2.5 p.o. mg/kg, six hours after infection). Also, the “blood stage parasitemia in later blood smear examinations” value in the series with P. berghei sporozoites is “no blood stage parasitemia was detected”. For the same molecule, in the series on P. berghei sporozoites, the “in vivo bioluminescence signal of developing parasite” value is reported as “No luminescence signal was detected”.
Take `OC(c1cc(C(F)(F)F)nc2c(C(F)(F)F)cccc12)C1CCCCN1` (stereo not shown) [Mefloquine]: the results for the Median parasite area in the series on P. yoelii EEF (1 μM) and in the series on P. yoelii EEF (10 μM) were 65.4±4.7 μm^2 and under 9 μm^2, respectively. Besides, the “activity against EEFs (in words)” value in the series with P. yoelii EEF is on record as “marginal activity”. The figures for the 50% inhibitory concentration (IC50) (with P. yoelii EEF; with HepG2-A16-CD81EGFP cells; in [2]) were 3270 nM, 3100 ± 600 nM and 9.5 ± 10 nM, respectively.
Take `COc1ccc2cc3[n+](cc2c1OC)CCc1cc2c(cc1-3)OCO2` [Berberine]: the Median parasite area is 46.4±7.0 μm^2 with P. yoelii EEF (1 μM) and 22.4±2.3 μm^2 in the series with P. yoelii EEF (10 μM). Moreover, in the series on P. yoelii EEF, the “activity against EEFs (in words)” value is given as “confirmed as active”. In addition, the IC50 with P. yoelii EEF was 224 ± 152 nM; in the series with HepG2-A16-CD81EGFP cells it was 2600 ± 500 nM; in [2], 117 ± 9 nM.
For `C[C@H]1Cc2c([nH]c3cc(Cl)c(F)cc23)[C@@]2(N1)C(=O)Nc1ccc(Cl)cc12` [NITD609], the “activity against EEFs (in words)” value with P. yoelii EEF was “inactive”. Moreover, the “Average Survival (%)” value in the series on P. berghei sporozoites (setting [9]) and in the series on P. berghei sporozoites (setting [10]) was 0% throughout. The “Prepatent Period” value came out at 4.5 days in the series on P. berghei sporozoites (setting [9]) and 4.2 days in the series with P. berghei sporozoites (setting [10]). Moreover, the “potency against P. falciparum blood stages” value in series [3] is given as ~ 1 nM. Further, the “cure in a blood-stage animal model” value in the series on Plasmodium berghei [4] was “fully curative”.
With `C[C@@H]1CC[C@H]2[C@@H](C)C(=O)O[C@@H]3O[C@@]4(C)CC[C@@H]1[C@]32OO4` [Artemisinin], the “activity against EEFs (in words)” value in the series on P. yoelii EEF was “inactive”. Also, the IC50 with P. yoelii EEF was over 10000 nM; in the series on HepG2-A16-CD81EGFP cells, over 10000 nM; in series [2], 3.3 ± 0.4 nM.
For `CCc1nc(N)nc(N)c1-c1ccc(Cl)cc1` [Pyrimethamine], in the series on P. yoelii EEF (1 μM), the “efficacy” value is given as “the parasites grew to normal size”. Moreover, the values for the Median parasite area in the series on P. yoelii EEF (1 μM) and in the series on P. yoelii EEF (10 μM) were 31.1±0.7 μm^2 and 29.6±2.0 μm^2, respectively. Besides, the “activity against EEFs (in words)” value with P. yoelii EEF is “confirmed as active”. Also, the figures for the IC50 (in the series with P. yoelii EEF; with HepG2-A16-CD81EGFP cells; in [2]) were 2.4 ± 1.6 nM, 6300 ± 3300 nM and 15 ± 2 nM, respectively.
On to `C[C@@H]1C[C@@H]([C@H](O)CC2CC(=O)NC(=O)C2)C(=O)[C@@H](C)C1` [Cycloheximide], for which the Median parasite area in the series on P. yoelii EEF (1 μM) and with P. yoelii EEF (10 μM) was under 9 μm^2 throughout. The results for the half-inhibitory concentration (IC50) (with HepG2-A16-CD81EGFP cells; in series [2]) were 220 ± 100 nM and 366 ± 69 nM, respectively.
Consider GNF179, for which, in the series with P. yoelii EEF (1 μM), the “efficacy” value is listed as “remained active later in EEF development”. In addition, in series [5] (in vivo), the “clearance CL” value came to 22 mL/min/kg, the “clearance as share of hepatic blood flow in mice” value is on record as ~ 25%, the “residence time MRT” value is 9 h and the “steady-state volume of distribution Vss” value stood at 11.8 L/kg. The “terminal half-life t1/2” value in series [5] (in vivo) is 8.9 h. Moreover, the “in vivo oral bioavailability” value in series [5] (po) was determined as 58%. Moreover, in the series with P. berghei sporozoites (setting [11]), the “Average Survival (%)” value was found to be 20% and the “Prepatent Period” value stood at 4.2 days. The “Average Survival (%)” value in the series with P. berghei sporozoites (setting [9]) was determined as 100%. Further, in the series on P. berghei sporozoites (setting [12]), the “Average Survival (%)” value is given as 80% and the “Prepatent Period” value stood at 6.2 days. Moreover, in the series on P. berghei sporozoites (20 p.o. mg/kg, 1–3 hours prior to sporozoite injection), the “Average Survival (%)” value was 100%. Further, in the series on P. berghei sporozoites, the “blood stage parasitemia in later blood smear examinations” value is recorded as “no blood stage parasitemia was detected” and the “in vivo bioluminescence signal of developing parasite” value is recorded as “No luminescence signal was detected”. For the same molecule, in [3], the “potency against P. falciparum blood stages” value was determined as 7 nM. For the same molecule, the cross-resistance entry in series [6] is “no cross-resistance”. Also, the “inhibition of parasite protein biosynthesis” value in [7] was “does not rapidly inhibit parasite protein biosynthesis”. Moreover, the “mouse survival prolonged by an average of” value in the series on Plasmodium berghei [1] (single 100 mg/kg oral dose) is on record as 19 days. The “reduction of Plasmodium berghei parasitemia levels” value with Plasmodium berghei [1] (single 100 mg/kg oral dose, mice) is recorded as 99.7%. Further, in [8] (15 mg/kg), the concentration peaked (Cmax) at 55 µM. Also, in series [8] (100 mg/kg), the Cmax was found to be 193 µM and the half-life in liver lay in the range of 7 to 9 h.
With `CC[C@@H](C(=O)[C@@H](C)[C@@H](O)[C@H](C)CCc1ccc(C)c(O)c1C(=O)O)[C@H]1O[C@](CC)([C@H]2CC[C@](O)(CC)[C@H](C)O2)C[C@@H]1C` [Lasalocid], in the series on P. yoelii EEF (1 μM), the “efficacy” value is recorded as “remained active later in EEF development”. For the same molecule, the Median parasite area with P. yoelii EEF (1 μM) and in the series on P. yoelii EEF (10 μM) was under 9 μm^2 each time. The “activity against EEFs (in words)” value in the series with P. yoelii EEF is listed as “confirmed as active”. Also, the figures for the half-inhibitory concentration (IC50) (in the series with P. yoelii EEF; in the series with HepG2-A16-CD81EGFP cells; in series [2]) were 37 ± 20 nM, 3900 ± 1400 nM and 50 ± 8 nM, respectively.
For `CCCCCCCCCCOc1cc2c(O)c(C(=O)OCC)cnc2cc1OCC` [Decoquinate], the Median parasite area is 17.7±0.3 μm^2 in the series with P. yoelii EEF (1 μM) and 18.8±4.7 μm^2 with P. yoelii EEF (10 μM). Besides, the results for the IC50 (in the series on P. yoelii EEF; with HepG2-A16-CD81EGFP cells; in series [2]) were 0.16 ± 0.02 nM, over 10000 nM and 0.25 ± 0.06 nM, respectively.
In the case of `CCN(CC)CCCC(C)Nc1ccnc2cc(Cl)ccc12` (stereo not shown) [Chloroquine], the Median parasite area is reported as 65.4±9.5 μm^2 with P. yoelii EEF (1 μM) and under 9 μm^2 in the series with P. yoelii EEF (10 μM). The half-maximal inhibitory concentration (IC50) in the series on P. yoelii EEF is 1650 nM; in the series on HepG2-A16-CD81EGFP cells it was 1600 ± 300 nM; in [2], 84 ± 3 nM. The molecule further showed an average survival times with Plasmodium berghei [1] of 12.5 days.

Broadly, the IC50 is the concentration that gives 50% inhibition. In general, Cmax refers to the peak of the concentration-time curve.

(Values after article PMC3473092 (Science (New York, N.Y.), 2011).)
